Structures can show the parent of a compound that is named as a salt.
Assays:
Assay type in all cases: in vivo
[1] = system: LEFCH (Leptochloa chinensis (L.) Nees, Chinese sprangletop); assay: Example I postemergence foliar-applied mixtures, direct seeded rice weeds, greenhouse: LEFCH
Protocol: (§1) Seeds or nutlets of the desired test plant species were planted in a soil matrix prepared by mixing a loam or sandy loam soil (e.g., 28.6 percent silt, 18.8 percent clay, and 52.6 percent sand, with a pH of about 5.8 and an organic matter content of about 1.8 percent) and calcareous grit in an 80 to 20 ratio. The soil matrix was contained in plastic pots with a volume of 1 quart and a surface area of 83.6 square centimeters (cm^2). […] The plants were grown for 8-22 days in a greenhouse with an approximate 14 hr photoperiod which was maintained at about 29° C. during the day and 26° C. during the night. Nutrients (Peters Excel® 15-5-15 5-Ca 2-Mg and iron chelate) were applied in the irrigation solution as needed and water was added on a regular basis. Supplemental lighting was provided with overhead metal halide 1000-Watt lamps as necessary. The plants were employed for testing when they reached the first through fourth true leaf stage.
(§2) Treatments consisted of the acid or esters of 4-amino-3-chloro-5-fluoro-6-(4-chloro-2-fluoro-3-methoxy-phenyl)pyridine-2-carboxylic acid (Compound A), each formulated as an SC (suspension concentrate), and various herbicidal components alone and in combination. Forms of compound A were applied on an acid equivalent basis.
(§3) For treatments comprised of formulated compounds, measured amounts of compounds were placed individually in 25 mL glass vials and diluted in a volume of 1.25% (v/v) Agri-Dex® crop oil concentrated to obtain 12× stock solutions. […] Application solutions were prepared by adding an appropriate amount of each stock solution (e.g., 1 mL) and diluted to the appropriate final concentrations with the addition of 10 mL of an aqueous mixture of 1.25% (v/v) crop oil concentrate so that the final spray solutions contained 1.25+/−0.05% (v/v) crop oil concentrate.
(§4) All stock solutions and applications solutions were visually inspected for compound compatibility prior to application. Spray solutions were applied to the plant material with an overhead Mandel track sprayer equipped with a 8002E nozzles calibrated to deliver 187 L/ha over an application area of 0.503 m^2 at a spray height of 18 to 20 inches (46 to 50 cm) above average plant canopy height. Control plants were sprayed in the same manner with the solvent blank.
(§5) The treated plants and control plants were placed in a greenhouse as described above and watered by sub-irrigation to prevent wash-off of the test compounds. After approximately 3 weeks, the condition of the test plants as compared with that of the untreated plants was determined visually and scored on a scale of 0 to 100 percent where 0 corresponds to no injury or growth inhibition and 100 corresponds to complete kill.
(§6) Colby's equation was used to determine the herbicidal effects expected from the mixtures (Colby, S. R. 1967. Calculation of the synergistic and antagonistic response of herbicide combinations. Weeds 15:20-22.).

[2] = system: IPOHE (Ipomoea hederacea Jacq., ivyleaf morningglory); assay: Example I postemergence foliar-applied mixtures, direct seeded rice weeds, greenhouse: IPOHE
Protocol: as §1, §2, §3, §4, §5, §6

[3] = system: ECHCO (Echinochloa colona (L.) Link, junglerice); assay: Example I postemergence foliar-applied mixtures, direct seeded rice weeds, greenhouse: ECHCO
Protocol: as §1, §2, §3, §4, §5, §6

[4] = system: SORHA (Sorghum halepense (L.) Pers., johnsongrass); assay: Example III postemergence foliar-applied mixtures, row crop weeds (corn, soybean), greenhouse: SORHA
Protocol: Seeds or nutlets of the desired test plant species were planted in a soil matrix prepared by mixing a loam or sandy loam soil (e.g., 43 percent silt, 19 percent clay, and 38 percent sand, with a pH of about 8.1 and an organic matter content of about 1.5 percent) and calcareous grit in an 80 to 20 ratio. The soil matrix was contained in plastic pots with a surface area of 84.6 square centimters (cm^2) and a volume of 560 cubic centimeters (cm^3). […] The plants were grown for 7-31 days (d) in a greenhouse with an approximate 15 hour (h) photoperiod which was maintained at about 23-29° C. during the day and 22-28° C. during the night. Nutrients (Peters Excel® 15-5-15 5-Ca 2-Mg) and water were added on a regular basis and supplemental lighting was provided with overhead metal halide 1000-Watt lamps as necessary. The plants were employed for testing when they reached the first, second, or third true leaf stage.
Treatments consisted of the acid or esters of 4-amino-3-chloro-5-fluoro-6-(4-chloro-2-fluoro-3-methoxy-phenyl)pyridine-2-carboxylic acid (Compound A), each formulated as an
SC (suspension concentrate), and various herbicidal components alone and in combination. Forms of compound A were applied on an acid equivalent basis.
Other herbicidal components were applied on an acid equivalent or active ingredient basis and included the 5-enolpyruvylshikimate-3-phosphate synthase (EPSPS)-inhibiting herbicide, glyphosate dimethylamine salt, formulated as Durango DMA® and the glutamine synthase (GS)-inhibiting herbicide, glufosinate ammonium, formulated as Ignite® 280.
For treatments comprised of formulated compounds, measured amounts of compounds were placed individually in 25 mL glass vials and diluted in a volume of 1.5% (v/v) Agri-dex® crop oil concentrate to obtain 6× stock solutions. […] Application solutions were prepared by adding an appropriate amount of each stock solution (typically 2 mL) and diluted to the appropriate final concentrations with the addition of an aqueous mixture of 1.5% (v/v) crop oil concentrate and water so that the final spray solutions contained 1.25% (v/v) crop oil concentrate.
All stock solutions and applications solutions were visually inspected for compound compatibility prior to application. Compound requirements are based upon a 12 mL application volume at a rate of 187 liters per hectare (L/ha). Formulated compounds were applied to the plant material with an overhead Mandel track sprayer equipped with 8002E nozzles calibrated to deliver 187 L/ha over an application area of 0.503 square meters (m^2) at a spray height of 18 to 20 inches (46 to 50 cm) above the average plant canopy height. Control plants were sprayed in the same manner with the solvent blank.
The treated plants and control plants were placed in a greenhouse as described above and watered by sub-irrigation to prevent wash-off of the test compounds. After approximately 2 weeks, the condition of the test plants as compared with that of the untreated plants was determined visually and scored on a scale of 0 to 100 percent where 0 corresponds to no injury or growth inhibition and 100 corresponds to complete kill.
The following equation was used to calculate the expected activity of mixtures containing two active ingredients, A and B: […]

[5] = system: ECHCG (Echinochloa crusgalli (L.) Beauv., barnyardgrass); assay: Example I postemergence foliar-applied mixtures, direct seeded rice weeds, greenhouse: ECHCG
Protocol: as §1, §2, §3, §4, §5, §6

[6] = system: DIGSA (Digitaria sanguinalis (L.) Scop., large crabgrass); assay: Example I postemergence foliar-applied mixtures, direct seeded rice weeds, greenhouse: DIGSA
Protocol: as §1, §2, §3, §4, §5, §6

[7] = Compound A Acid alone, 19.4 gae/ha
[8] = Compound A Acid alone, 4.38 gae/ha
[9] = Compound A Acid alone, 8.75 gae/ha
[10] = Compound A Acid alone, 17.5 gae/ha
[11] = Compound A Acid alone, 3.75 gae/ha
[12] = Compound A Benzyl Ester alone, 4.38 gae/ha
[13] = Compound A Benzyl Ester alone, 8.75 gae/ha
[14] = Compound A Benzyl Ester alone, 17.5 gae/ha
[15] = Compound A Benzyl Ester alone, 8 gae/ha
[16] = Compound A Benzyl Ester alone, 16 gae/ha
[17] = glufosinate ammonium alone, 135.5 gae/ha
[18] = glufosinate ammonium alone, 271 gae/ha

## COc1c(Cl)ccc(-c2nc(C(=O)O)c(Cl)c(N)c2F)c1F [Compound A Acid, 4-amino-3-chloro-6-(4-chloro-2-fluoro-3-methoxyphenyl)-5-fluoropyridine-2-carboxylic acid]
[1]; Compound A Acid alone, 17.5 gae/ha (Table 2)
  Visual Weed Control (%) - 21 DAA LEFCH Obs: 30%
[1]; Compound A Acid alone, 17.5 gae/ha (Tables 1, 9)
  Visual Weed Control (%) - 21 DAA LEFCH Obs: 0%
[1]; [7]
  Visual Weed Control (%) - 20 DAA LEFCH Obs: 5%
[2]; [8]
  Visual Weed Control (%) - 21 DAA IPOHE Obs: 10%
[2]; [9]
  Visual Weed Control (%) - 21 DAA IPOHE Obs: 35%
[2]; [10]
  Visual Weed Control (%) - 21 DAA IPOHE Obs: 45%
[3]; Compound A Acid alone, 4.38 gae/ha (Table 2)
  Visual Weed Control (%) - 21 DAA ECHCO Obs: 60%
[3]; Compound A Acid alone, 4.38 gae/ha (Tables 1, 9)
  Visual Weed Control (%) - 21 DAA ECHCO Obs: 70%
[3]; Compound A Acid alone, 8.75 gae/ha (Table 2)
  Visual Weed Control (%) - 21 DAA ECHCO Obs: 90%
[3]; Compound A Acid alone, 8.75 gae/ha (Tables 1, 9)
  Visual Weed Control (%) - 21 DAA ECHCO Obs: 75%
[4]; [11]
  Visual Weed Control (%) - 13 DAA SORHA Obs: 0%
  Visual Weed Control (%) - 16 DAA SORHA Obs: 0%
[4]; Compound A Acid alone, 7.5 gae/ha
  Visual Weed Control (%) - 13 DAA SORHA Obs: 0%
[4]; Compound A Acid alone, 15 gae/ha
  Visual Weed Control (%) - 13 DAA SORHA Obs: 0%
[5]; [8]
  Visual Weed Control (%) - 21 DAA ECHCG Obs: 15%
[5]; [9]
  Visual Weed Control (%) - 21 DAA ECHCG Obs: 50%
[6]; [8]
  Visual Weed Control (%) - 21 DAA DIGSA Obs: 35%
[6]; [9]
  Visual Weed Control (%) - 21 DAA DIGSA Obs: 50%
[6]; [10]
  Visual Weed Control (%) - 21 DAA DIGSA Obs: 40%
[6]; [7]
  Visual Weed Control (%) - 20 DAA DIGSA Obs: 13%

## COc1c(Cl)ccc(-c2nc(C(=O)OCc3ccccc3)c(Cl)c(N)c2F)c1F [Compound A Benzyl Ester]
[1]; [12]
  Visual Weed Control (%) - 21 DAA LEFCH Obs: 0%
[1]; [13]
  Visual Weed Control (%) - 21 DAA LEFCH Obs: 40%
[1]; [14]
  Visual Weed Control (%) - 21 DAA LEFCH Obs: 45%
[2]; [12]
  Visual Weed Control (%) - 21 DAA IPOHE Obs: 10%
[2]; [15]
  Visual Weed Control (%) - 21 DAA IPOHE Obs: 10%
[2]; [13]
  Visual Weed Control (%) - 21 DAA IPOHE Obs: 10%
[2]; [16]
  Visual Weed Control (%) - 20 DAA IPOHE Obs: 18%
  Visual Weed Control (%) - 21 DAA IPOHE Obs: 10%
[2]; [14]
  Visual Weed Control (%) - 21 DAA IPOHE Obs: 25%
[2]; Compound A Benzyl Ester alone, 32 gae/ha
  Visual Weed Control (%) - 21 DAA IPOHE Obs: 45%
[3]; [12]
  Visual Weed Control (%) - 21 DAA ECHCO Obs: 70%
[3]; [13]
  Visual Weed Control (%) - 21 DAA ECHCO Obs: 75%
[4]; Compound A Benzyl Ester alone, 3.75 gae/ha
  Visual Weed Control (%) - 13 DAA SORHA Obs: 0%
[4]; Compound A Benzyl Ester alone, 7.5 gae/ha
  Visual Weed Control (%) - 13 DAA SORHA Obs: 0%
[4]; Compound A Benzyl Ester alone, 15 gae/ha
  Visual Weed Control (%) - 13 DAA SORHA Obs: 10%
[5]; [12]
  Visual Weed Control (%) - 21 DAA ECHCG Obs: 10%
[5]; [13]
  Visual Weed Control (%) - 21 DAA ECHCG Obs: 85%
[6]; [15]
  Visual Weed Control (%) - 21 DAA DIGSA Obs: 25%
[6]; [16]
  Visual Weed Control (%) - 20 DAA DIGSA Obs: 18%
  Visual Weed Control (%) - 21 DAA DIGSA Obs: 30%

## CP(=O)(O)CCC(N)C(=O)O (stereo not drawn) [Glufosinate ammonium salt, 2-amino-4-(hydroxymethylphosphinyl)butanoic acid monoammonium salt, reference compound]
[1]; [17]
  Visual Weed Control (%) - 21 DAA LEFCH Obs: 0%
[1]; [18]
  Visual Weed Control (%) - 21 DAA LEFCH Obs: 10%
[2]; glufosinate ammonium alone, 112.5 gai/ha
  Visual Weed Control (%) - 21 DAA IPOHE Obs: 10%
[2]; glufosinate ammonium alone, 542 gai/ha
  Visual Weed Control (%) - 20 DAA IPOHE Obs: 50%
[3]; [17]
  Visual Weed Control (%) - 21 DAA ECHCO Obs: 0%
[3]; [18]
  Visual Weed Control (%) - 21 DAA ECHCO Obs: 0%
[4]; [18]
  Visual Weed Control (%) - 13 DAA SORHA Obs: 20%
[4]; glufosinate ammonium alone, 542 gae/ha
  Visual Weed Control (%) - 13 DAA SORHA Obs: 25%
[5]; [17]
  Visual Weed Control (%) - 21 DAA ECHCG Obs: 60%
[5]; [18]
  Visual Weed Control (%) - 21 DAA ECHCG Obs: 10%
[6]; [17]
  Visual Weed Control (%) - 21 DAA DIGSA Obs: 0%

— patent publication US20140031227A1, “HERBICIDAL COMPOSITIONS COMPRISING 4-AMINO-3-CHLORO-5-FLUORO-6-(4-CHLORO-2-FLUORO-3-METHOXYPHENYL) PYRIDINE-2-CARBOXYLIC ACID OR A DERIVATIVE THEREOF AND GLYPHOSATE OR GLUFOSINATE” (DOW AGROSCIENCES LLC, priority 2012, published 2014)
